Assay results from article PMC6748986, “Potent modulation of the CepR quorum sensing receptor and virulence in a Burkholderia cepacia complex member using non-native lactone ligands” (Scientific Reports, 2019).
Changes are numbered by the printed parent chain. Values joined by “and” are separate entries in the source; they are usually repeats but may differ in a detail not shown here. Equal values may be shown once. Read-outs that look alike come from different tables or passages of the source.

What was measured:
[1] = target: T1, CepR (Burkholderia cenocepacia, UniProt B4EMD0); test: CepR agonism in E. coli β-galactosidase reporter (Ec-reporter) JLD271 [pJN105-cepR + pSC11-cepI]; type: cell-based, B. cenocepacia; details: for Maximal Activation (%): activity for 100 μM C8-AHL set to 100%, error ±10%
T1 sequence (B4EMD0 1-239): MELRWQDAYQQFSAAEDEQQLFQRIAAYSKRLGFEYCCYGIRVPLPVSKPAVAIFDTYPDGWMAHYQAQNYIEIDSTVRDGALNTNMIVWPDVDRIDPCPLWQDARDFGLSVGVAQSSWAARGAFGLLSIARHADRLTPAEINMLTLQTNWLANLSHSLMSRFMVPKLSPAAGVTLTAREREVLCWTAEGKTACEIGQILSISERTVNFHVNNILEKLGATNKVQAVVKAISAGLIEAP
Outline: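 E. coli JLD271 (ΔsdiA) carrying arabinose-inducible CepR (27 mM L-arabinose) and cepI-lacZ fusion, grown 4 h with compound; β-galactosidase measured by CPRG cleavage at 37 °C (~30 min), normalized to OD600. Agonism compared with C8-AHL at 100 μM; screen at 100 μM or solubility limit, then dose-response; ≥3 trials.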

[2] = target: T1, CepR; test: CepR antagonism in E. coli β-galactosidase reporter (Ec-reporter), competition against C8-AHL; type: cell-based, B. cenocepacia
Outline: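 CepR antagonism was measured in E. coli JLD271 (∆sdiA) carrying pJN105-cepR, which expresses B. cenocepacia CepR from an arabinose-inducible pBAD promoter, and pSC11-cepI, which fuses lacZ to the cepI promoter. Induced cells were grown 4 h with compound and 10 nM C8-AHL. β-Galactosidase activity was then read by CPRG cleavage at 37 °C after Z Buffer permeabilization.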

[3] = target: T2, CepR (Burkholderia multivorans, UniProt Q93PF7); test: CepR agonism in B. multivorans cepI::lacZ reporter (Bm-reporter); type: cell-based; details: for EC50: read-out: EC50; for Maximal Activation (%): activity for 100 μM C8-AHL set to 100%, error ±10%
T2 sequence (Q93PF7 1-239): T1 sequence (B4EMD0 1-239) with W5R, A51S, Q69H, N84S, R95Q, D97A
From the text: (§1) We next sought to assess if the CepR modulators identified in the Ec-reporter maintained their activities in a member of the Bcc. For these studies, we generated a B. multivorans cepI::lacZ reporter organism (Bm-reporter) using standard allelic exchange methods (see Methods). Along with B. cenocepacia, B. multivorans is one of the most commonly isolated Bcc members[6],[44]. We note that small molecules must contend with a different cellular environment in the native organism relative to E. coli[48]; however, as both CepR and the cepI promoter are highly conserved among Bcc species (Fig. S3), we reasoned that the majority of compounds identified in the Ec-reporter (containing B. cenocepacia versions of the cepI promoter and the cepR gene) would maintain their relative activity profiles in CepR in B. multivorans. […] Similar to the Ec-reporter, CepR binding to the cepI promoter then induces β-galactosidase production, allowing for the quantitation of CepR activity. Using the Bm-reporter organism, we observed robust activity for CepR in response to C8-AHL (EC50 = 0.7 nM, Table 3).
(§2) The B. multivorans cepI::lacZ strain was used to obtain dose-response data for CepR in response to synthetic AHLs. Overnight cultures of B. multivorans cepI::lacZ were grown in LB medium at 37 °C with shaking (225 rpm). Aliquots (200 μL) of a 1:10 dilution of this overnight culture were plated into 96-well plates containing varying concentrations of compound, and then grown for 4 h at 37 °C with shaking (225 rpm). β-galactosidase production was measured as described above for E. coli, with the following changes: permeabilized cells were incubated at 25 °C with substrate CPRG for ~10 min until positive control wells developed a deep red color. For agonism assays, synthetic compound was screened alongside and compared to the native ligand, C8-AHL (100 μM). For antagonism assays, the concentration of native ligand utilized was 5 nM (approximately equal to twice its EC50 value).

[4] = target: T2, CepR; test: CepR antagonism in B. multivorans cepI::lacZ reporter (Bm-reporter), competition against C8-AHL; type: cell-based; details: for Maximal Inhibition (%) / IC50: against 5 nM C8-AHL; for IC50: read-out: IC50
From the text: as §1, §2

[5] = Ec-reporter, agonism dose-response
[6] = Table S2, Ec-reporter, screening conc. 100 μM
[7] = Table S3, Ec-reporter, screening conc. 100 μM, against 10 nM C8-AHL
[8] = Bm-reporter, agonism dose-response
[9] = Table S4, Bm-reporter, screening conc. 100 μM
[10] = Ec-reporter, against 10 nM C8-AHL

| SMILES | EC50 [1, 5] | Maximal Activation (%) ([1]; Ec-reporter) | Act% [1, 6] | Inh% (100-Act%) [2, 7] | Act% [3, 9] | other results |
| --- | --- | --- | --- | --- | --- | --- |
| CCCCOc1ccc(C(=O)N[C@H]2CCOC2=O)cc1 [Compound R4] | – | – | – | – | – | EC50 ([1]; Table S2, Ec-reporter): 86 nM; Act% ([1]; Table S2, Ec-reporter, screening conc. 25 μM): 84%; Inh% (100-Act%) ([2]; Table S3, Ec-reporter, screening conc. 25 μM): -30%; Act% ([3]; Table S4, Bm-reporter, screening conc. 25 μM): 58% |
| O=C(CCc1ccc(Br)cc1)N[C@H]1CCOC1=O [Compound B7] | 0.29 nM | 97% | 97% | -50% | 82% | EC50 (nM) [1, 5]: sub-nanomolar; EC50 [3, 8]: 0.24 nM; Maximal Activation (%) ([3]; Bm-reporter): 82% |
| O=C(CCc1ccc(F)cc1)N[C@H]1CCOC1=O [Compound E29] | 2.3 nM | 92% | 92% | -10% | 94% | – |
| O=C(Cc1ccc([N+](=O)[O-])cc1)N[C@H]1CCOC1=O [Compound C13] | – | – | 1.1% | 79% | – | CepR antagonism in words ([4]; Bm-reporter): bring reporter activity down to nearly zero; Maximal Inhibition (%) ([4]; Bm-reporter): 96%; IC50 ([4]; Bm-reporter): 3600 nM; IC50 ([2]; Table S3, Ec-reporter): 6700 nM |
| O=C(Cc1cccc(Cl)c1)N[C@H]1CCOC1=O [Compound C6] | – | – | 3.2% | – | – | Inh% (100-Act%) ([4]; Table S5, Bm-reporter, screening conc. 100 μM): 98%; IC50 [2, 10]: 39000 nM; Maximal Inhibition (%) [2, 10]: 66% |
| O=C(CCC1CCCCC1)N[C@H]1CCOC1=O [Compound B11] | 130 nM | 87% | 87% | -20% | 51% | – |
| CCCCCCCCCC(=O)CC(=O)N[C@H]1CCOC1=O [3’O-C12-AHL, reference compound] | – | – | 98% | -40% | 80% | – |
| CCCCCC(=O)CC(=O)N[C@H]1CCOC1=O [3’O-C8-AHL, reference compound] | 1200 nM | 86% | 86% | 3.0% | 72% | IC50 [2, 10]: 16000 nM; Maximal Inhibition (%) [2, 10]: 71%; EC50 [3, 8]: ≥ 3500 nM; Maximal Activation (%) ([3]; Bm-reporter): 72% |
| O=C(CCc1cccc(I)c1)N[C@H]1CCOC1=O [Compound E33] | 0.95 nM | 92% | 92% | -20% | 94% | EC50 (nM) [1, 5]: sub-nanomolar; EC50 [3, 8]: 0.15 nM; Maximal Activation (%) ([3]; Bm-reporter): 94% |
| CCCOc1ccc(C(=O)N[C@H]2CCOC2=O)cc1 [Compound R2] | – | – | 98% | -10% | 92% | EC50 ([1]; Table S2, Ec-reporter): 38 nM |
| CC(C)Oc1ccc(C(=O)N[C@H]2CCOC2=O)cc1 [Compound R3] | – | – | 92% | -10% | 40% | EC50 ([1]; Table S2, Ec-reporter): 94 nM |
| O=C(CCCOc1ccc(Cl)cc1)NC1CCOC1=O (stereo not drawn) [CL, reference compound] | – | – | 110% | -20% | 80% | EC50 ([1]; Table S2, Ec-reporter): 12 nM; EC50 [3, 8]: 940 nM; Maximal Activation (%) ([3]; Bm-reporter): 80% |
| Cc1ccc(CCC(=O)N[C@H]2CCOC2=O)cc1 [Compound E26] | 5.9 nM | 96% | 96% | -10% | 96% | Maximal Activation (%) ([3]; Bm-reporter): 96%; EC50 ([3]; Table S4, Bm-reporter): 0.77 nM |
| O=C(CCc1ccc2c(c1)OCO2)N[C@H]1CCOC1=O [Compound E39] | 1.4 nM | 100% | 103% | -40% | 84% | EC50 ([3]; Table S4, Bm-reporter): 9.1 nM |
| COc1ccc(CCC(=O)N[C@H]2CCOC2=O)cc1 [Compound E28] | 3.8 nM | 92% | 92% | -30% | 90% | EC50 ([3]; Table S4, Bm-reporter): 52 nM |
| O=C(CCc1ccc(Cl)cc1)N[C@H]1CCOC1=O [Compound E30] | 4.4 nM | 85% | 85% | -10% | 84% | EC50 [3, 8]: 0.75 nM; Maximal Activation (%) ([3]; Bm-reporter): 84% |
| CSc1ccc(CCC(=O)N[C@H]2CCOC2=O)cc1 [Compound E34] | 0.07 nM and 0.071 nM | 104% and 100% | 104% | -20% | 110% | Fold more potent than C8-AHL ([1]; Ec-reporter, EC50 comparison): ~100 fold; EC50 [3, 8]: 0.94 nM; Maximal Activation (%) ([3]; Bm-reporter): 110% |

| SMILES | EC50 [1, 5] | Maximal Activation (%) ([1]; Ec-reporter) | Act% [1, 6] | Inh% (100-Act%) [2, 7] | Act% [3, 9] | other results |
| --- | --- | --- | --- | --- | --- | --- |
| O=C(CCc1cccc(Br)c1)N[C@H]1CCOC1=O [Compound E31] | 4.4 nM | 89% | 89% | -20% | 78% | EC50 [3, 8]: ≥ 3400 nM; Maximal Activation (%) ([3]; Bm-reporter): 78% |
| CCCCCCCCCC(=O)NC1CCCC1 [Compound C10-CPA, reference compound] | – | – | 48% | 4.0% | – | – |
| O=C(Cc1ccc(-c2ccccc2)cc1)NC1CCSC1=O (stereo not drawn) [Compound F13] | – | – | 35% | -20% | – | – |
| O=C(Cc1cccc([N+](=O)[O-])c1)Nc1cccc([N+](=O)[O-])c1 [Compound F55] | – | – | 25% | 13% | – | CepR antagonism in words ([2]; Ec-reporter): dramatic losses in activity |
| O=C(Cc1ccc(Br)cc1)NC1CCSC1=O (stereo not drawn) [Compound F10] | – | – | 0.5% | 6.0% | – | CepR antagonism in words ([2]; Ec-reporter): dramatic losses in activity |
| O=C(CCc1cccs1)N[C@H]1CCOC1=O [Compound D3] | – | – | 87% | -40% | – | – |
| [N-]=[N+]=Nc1ccc(CC(=O)N[C@H]2CCOC2=O)cc1 [Compound C17] | – | – | 1.0% | 26% | – | – |
| CCCC(=O)CC(=O)N[C@H]1CCOC1=O [3’O-C6-AHL, reference compound] | – | – | – | – | – | Maximal Inhibition (%) ([4]; Bm-reporter): 85%; IC50 ([4]; Bm-reporter): 800 nM |
| CCCCCOc1ccc(C(=O)N[C@H]2CCOC2=O)cc1 [Compound R5] | – | – | 95% | -10% | – | – |
| O=C(N[C@H]1CCOC1=O)c1cnn(-c2ccccc2)c1C(F)(F)F [Compound D9] | – | – | 14% | 0.0% | – | – |
| CCCCCC(=O)CC(=O)NC1CCSC1=O (stereo not drawn) [3’O-C8-TL] | – | – | 61% | -20% | – | – |
| O=C(CCc1cccc(C(F)(F)F)c1)N[C@H]1CCOC1=O [Compound E36] | 26 nM | 92% | 92% | -10% | 103% | EC50 [3, 8]: ≥ 3900 nM; Maximal Activation (%) ([3]; Bm-reporter): 100% |
| COc1cc(C(C)=O)ccc1OCC(=O)N[C@H]1CCOC1=O [Compound D16] | – | – | 3.5% | 0.0% | – | – |
| Cc1cccc(OCC(=O)N[C@H]2CCOC2=O)c1 [Compound E16] | – | – | 11% | 21% | – | – |
| O=C(N[C@H]1CCOC1=O)c1ccc(F)cc1 [Compound Q3] | – | – | 11% | 17% | – | – |
| CCCCCCCCOc1ccc(C(=O)N[C@H]2CCOC2=O)cc1 [Compound Q9] | – | – | 62% | -20% | – | – |
